test system: PAF-induced aggregation in washed rabbit platelets (WRPs); assay: Inhibition of PAF-induced aggregation in washed rabbit platelets; format: cell-based; conditions: ratio of thrombin and PAF IC50
Description: The biological experiments of PAF-induced platelet aggregation as well as the evaluation of the inhibitory effect of its synthetic compounds were performed according to thoroughly described protocols. […] Briefly, in order to obtain the washed rabbit platelets (WRPs), platelet-rich plasma was washed on Ficoll–Paque cushions and adjusted to […] platelets/mL of Tyrode’s buffer, pH 7.2. The dilution of PAF was prepared using pyrogen-free 0.15 M NaCl containing 2.5 mg/mL of crystallized bovine serum albumin, required for dispersion of PAF. The compounds under investigation were firstly dissolved in the appropriate solvent that is: DMSO for pqx (0.010 M), H2O for CrCl3 × 3H2O (0.016 M), H2O for MnCl2 × 4H2O (0.004 M), DMSO-EtOH (4/1, v/v)) for FeCl2 × 4H2O (0.014 M), H2O for CoCl2 × 6H2O (0.010 M), H2O for NiCl2 × 6H2O (0.010 M), H2O for CuCl2 × 2H2O (0.008 M), H2O for ZnCl2 (0.013 M), DMSO for 1 (0.017 M), DMSO for 2 (0.010 M0, DMSO for 3 (0.004 M), DMSO for 4 (0.002 M), DMSO for 5 (0.003 M), DMSO-EtOH-H2O (25/1/1, v/v)) for 6 (0.006 M), DMSO for 7 (0.002 M) and aliquots of these solutions were then added in solutions (2.5 mg BSA/mL) of saline.
The experiment on the inhibitory effect of each compound of interest against the washed rabbit platelets (WRPs) aggregation was carried out as per the already described method. The platelets were from male New Zealand white rabbits (about 20), individually housed in stainless steel cages in an air-conditioned room (19 ± 1 °C, 55 ± 5% humidity on a 12/12 h artificial light/dark cycle). Blood samples were drawn from the main ear artery. Microliters of PAF in a final concentration of about 10^–10 M were added to the cuvette of the aggregometer, and the height of the platelet aggregation was monitored. The platelet aggregation induced by PAF, or thrombin was measured before (considered as 0% inhibition) and after the addition of various concentrations of the examined sample, creating a linear curve of percentage inhibition (ranging from 0 to 100%) versus different concentrations of the sample. From this curve, the concentration of the sample that inhibited 50% PAF-induced aggregation was calculated, and this value was defined as IC50 (Inhibitory concentration for 50% Inhibition). Dithiothreitol-insensitive PAF choline phosphotransferase, lyso-PAF:acetyl-CoA acetyltransferase and PAF-acetylhydrolase activity assays were performed on the homogenates of rabbit leukocytes while the activity of lipoprotein-associated phospholipase A2 was assessed on plasma as previously described. The experiments were performed in a model 400 vs. aggregometer of Chrono-Log (Havertown, PA, USA) coupled to a Chrono-Log recorder at 37 °C with constant stirring at 1200 rpm. The separation of platelets was performed with centrifugations in a 3L-R Heraeus Labofuge (Hvanau, Germany), a 400R Heraeus Labofuge and an RC-5B Sorvall (Newtown, CT, USA) refrigerated super speed centrifuge. Bovine serum albumin (BSA), PAF and analytical solvents for the biological assays were purchased from Sigma. […] The measurements were performed in duplicates for each sample concentration in three different WRP preparations, in order to ensure reproducibility. All experiments were also followed by appropriate control tests of the solvent used (saline solution of BSA, DMSO aliquots in a saline solution of BSA-2.5 mg BSA/mL saline- or just in saline), in WRPs. In the aggregometer cuvette (250 to 500 μL) the overall amount of added DMSO, contained in the solution of the sample under study, is not higher than 2–3 μL. All results were expressed as mean ± standard deviation (SD). The t-test was employed to assess differences among the IC50 values of each metal complex against either the PAF- or thrombin-induced aggregation. Differences were statistically significant when the statistical p-value was smaller than 0.05.

For mer-[Cr(pqx)Cl3(H2O)] [Complex 1], the “fold more potent against PAF as opposed to thrombin-induced aggregation” value was ~12 fold.

same assay, conditions: washed rabbit platelets; mean ± SD; read-out: IC50 (μM) towards PAF in WRPs

First: CS(C)=O.[Cl][Cu][Cl].c1ccc(-c2cnc3ccccc3n2)nc1 [Complex 3, [Cu(pqx)Cl2(DMSO)]]
Second: [Cl][Zn][Cl].c1ccc(-c2cnc3ccccc3n2)nc1 [Complex 4, [Zn(pqx)Cl2]]
The IC50 of the first is 3.2-fold higher: 10.6 ± 1.4 µM for the first, 3.3 ± 0.3 µM for the second.

Compared with [Co(pqx)Cl2(DMF)] [Complex 2], [Fe(pqx)Cl2]2 [Complex 6] is 2.3-fold lower in IC50: 4.1 ± 0.6 µM for the first, 1.79 ± 0.12 µM for the second. The second is the more potent here.

Going from [Mn(pqx)(H2O)2Cl2]2 [Complex 5] to [Ni(pqx)Cl2]2 [Complex 7], the IC50 falls from 39 ± 6 µM to 6.83 ± 0.42 µM (5.7-fold). The second is the more potent here.

Molecule mer-[Cr(pqx)Cl3(H2O)] [Complex 1] has an IC50 of 4.5 ± 0.9 µM.

From PMC10574351, “First-Row Transition Metal Complexes Incorporating the 2-(2′-pyridyl)quinoxaline Ligand (pqx), as Potent Inflammatory Mediators: Cytotoxic Properties and Biological Activities against the Platelet-Activating Factor (PAF) and Thrombin” (Molecules, 2023)
